Data taken from paper PMC5548745, “Agonist-induced dimer dissociation as a macromolecular step in G protein-coupled receptor signaling” (Nature Communications, 2017).
“Also recorded” adds a separate entry of the source.

What was measured:
FZD6-TM4 = target: T1, FZD6-TM4 (Homo sapiens, UniProt O60353); assay: isothermal titration calorimetry of TM peptides; type: binding; settings: 820 µM TM5 or TM5 mut into 165 µM TM4; 0.5% DDM; 20 °C; one set of sites
T1 construct: purchased Pepscan Therapeutics (Lelystad, Netherlands); host or cells: chemical synthesis (Fmoc solid phase)
T1 sequence (O60353 with tags, fused parts or gaps limits assumed): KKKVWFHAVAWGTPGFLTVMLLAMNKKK
Procedure: (§1) CD spectra were recorded using a J-810 spectropolarimeter (Jasco, Easton, MD, USA) in a 0.1 cm quartz cuvette. Far-UV CD spectra were collected over 190–260 nm. ITC measurements were carried out at 20 °C on an ITC (VP–ITC 200, MicroCal). 820 µM FZD6 TM5 and 165 µM FZD6 TM4 were dissolved in 0.5% DDM in water. 2 µl of TM5 peptide were injected into 260 µl TM4 during each titration. The ITC data were analyzed with the Origin 7.0 software.

[1] = circular dichroism of synthetic TM peptides; type: physicochemical
Procedure: as §1
Supplementary Figure 5: Circular dichroism (CD) and isothermal titration calorimetry (ITC) experiments for structural analysis of synthetic peptides resembling TM1, 4, 5 and mutant TM5 and of peptide-peptide interactions, related to Figure 3. Synthetic peptides (for sequence see Supplementary Fig. 9) resembling TM1 (a), 4 (b), 5 (c) and mutant TM5 (d) were used for CD experiments in triple distilled water with increasing DDM concentrations (0% DDM – black, 0.01% DDM – blue, 0.1% DDM – green and 0.5% DDM – red). (c)TM5 is unstructured in TDW and begins to gain structure at 0.1% DDM. It forms a clear α-helical structure in 0.5% DDM. The triple mutated TM5 (d) forms an α-helix in a much lower DDM concentration (0.01% DDM). […]

TM4 peptide of FZD6 = assay: analytical size-exclusion chromatography of TM peptides; type: binding, human; settings: TDW + 0.01% DDM; 500 µM each peptide; Superdex 30; 0.8 ml min^−1; room temperature; 215 nm; 2 h incubation
Procedure: Analytical SEC was performed on an ÄKTA Explorer with a Superdex 30 analytical column (GE Healthcare) equilibrated with TDW + 0.01% DDM. Peptides were eluted with a flow rate of 0.8 ml min^−1 at room temperature. Elution profile was monitored by UV absorbance at 215 nm. For the binding experiments, the peptides were incubated together in TDW + 0.01% DDM at room temperature for 2 h.

[2] = CD, triple distilled water with 0, 0.01, 0.1, 0.5% DDM

| Sequence | ITC affinity (dissociation constant, K D) to TM4 (FZD6-TM4) | DDM concentration at which peptide begins to gain structure [1, 2] | DDM concentration at which α-helix forms [1, 2] | secondary structure in detergent (CD) ([1]; DDM detergent solution, lipophilic environment) | secondary structure in TDW (CD) ([1]; triple distilled water, 0% DDM, 190–260 nm) | SEC elution volume in combination with TM4 (TM4 peptide of FZD6) |
| --- | --- | --- | --- | --- | --- | --- |
| KKLDASRYFVLLPLCLCVFVGLSLLLAGIISKKK [TM5, synthetic peptide of FZD6 transmembrane helix 5] | micromolar affinity; also recorded: in the micromolar range | 0.1% | 0.5% | structured and α-helical | unstructured | eluted at a greater volume than TM4 and TM5 alone |
| WKKLAASAAFVLLPLCLCVFVGLSLLLAGIISKKK [TM5 mut, TM5 peptide with D365A, R368A, Y369A mutations] | does not interact | – | 0.01% | – | – | did not result in a shift to a higher elution volume |
